Experimental data published in the NIST ThermoML archive (doi:10.1021/je500332k).
± gives the expanded uncertainty stated by the source.

What was measured:
[1] = refractive index (Na D-line) (dimensionless); details: 298.2 K; 101.33 kPa; Liquid; Standard Abbe refractometry
[2] = Boiling temperature at pressure P; details: 101.33 kPa; Liquid; Distillation
[3] = 298.2 K; 101.33 kPa; Liquid; Vibrating tube method

| refractive index [1] | Boiling temperature at pressure P [2] [°C] | mass density [3] [kg/m3] | SMILES |
| --- | --- | --- | --- |
| 1.3713 ± 0.0003 | 118.1 ± 0.3 | 1049.42 ± 0.26 | CC(=O)O [acetic acid] |
| 1.3685 ± 0.0004 | 90.08 ± 0.29 | 1061.9 ± 0.38 | COC(=O)OC [dimethyl carbonate] |
| 1.3324 ± 0.0003 | 100.1 ± 0.3 |  | O [water] |
